Reference: US20040229816A1, “Anti-angiogenic and anti-tumoral properties of beta and gamma secretase inhibitors” (priority 2003, published 2004)
“Also recorded” adds a separate entry of the source. Peptide text beside a SMILES is read from it. * marks the point of attachment. Cbz = O=C(OCc1ccccc1)*

Legend:
[1] = test system: human brain endothelial cells; assay: proliferation of human brain endothelial cells (Quick cell proliferation assay kit); type: cell-based; details: various doses, 24 hours
Description: (§1) Primary cultures of human brain endothelial cells were plated at a density of 10^4 cells/[…] of EBM 4% in 96 wells culture plates and treated with various doses of γ-secretase and β-secretase inhibitors as indicated in the figure legends. Following 24 hours in culture, the EBM covering the cells was removed and assayed for Lacticodehydrogenase (LDH) activity using the cytotoxicity detection kit (Roche Diagnostic Corporation, Ind.). Cells were covered with […] of EBM 4% and cellular proliferation measured using the Quick cell proliferation assay kit (Biovision Research Products, Calif.).

[2] = test system: U-87 MG brain tumor cells; assay: proliferation of U-87 MG brain tumor cells; type: cell-based, human
[3] = test system: human brain endothelial cells; assay: viability of human brain endothelial cells (LDH activity in culture medium); type: cell-based; details: 24 hours; for cellular toxicity / viability of human brain endothelial cells versus control: doses employed; for LDH activity in the culture medium, ANOVA main effect: various doses
Description: as §1

[4] = test system: human lung adenocarcinoma (A-549) xenografts; assay: human lung adenocarcinoma A-549 xenografts in nude mice; type: in vivo; details: Z-VLL-CHO 5 mg/Kg; for vascularization (vascular index) of A-549 tumors versus vehicle: DAPT 10 mg/Kg intraperitoneally, CD31/PECAM-1 immunostaining; for growth (tumor volume) of A-549 xenografts versus vehicle: intraperitoneally everyday for 12 days, DAPT 10 mg/Kg
Description: FIG. 9a: Anti-tumoral effect of the γ-secretase inhibitor DAPT and of the β-secretase inhibitor Z-VLL-CHO on human lung adenocarcinoma (A-549) xenografts growth rates. A-549 cells (8.5×10^6) were injected subcutaneously into both flanks of 8-10 weeks-old nude mice. Mice were injected intraperitoneally with either the vehicle, 5 mg/Kg of body weight of the β-secretase inhibitor Z-VLL-CHO or 10 mg/Kg of body weight of the γ-secretase inhibitor DAPT, starting when tumors had reached a mean tumor volume of approximately 200 mm^3 (day 21 post implantation). Injections were given everyday for 12 days. […] FIG. 9b: Representative pictures of sections of lung adenocarcinoma tumors immunostained with CD31 antibodies. FIG. 9c: Histogram depicting the quantification of the vascularization of lung adenocarcinoma tumors.
FIG. 10: Anti-tumoral effect of the γ-secretase inhibitor JLK-6 on human lung adenocarcinoma (A-549) xenografts growth rates. A-549 cells (8.5×10^6) were injected subcutaneously into both flanks of 8-10 weeks-old nude mice. Mice were injected intraperitoneally everyday from Day 16 (when the tumors reached a volume of approximately 150 mm^3) with either the vehicle or 5 mg/Kg of body weight of the γ-secretase inhibitor JLK-6.
The human glioblastoma U-87 MG and human lung adenocarcinoma A-549 cell lines were obtained from American Tissue Culture Type Collection (Manassas, Va.) and were grown in DMEM containing 1×penicilline-streptomycine-fungizone and 10% fetal bovine serum at 37° C. in a humidified atmosphere of 5% CO2. Tumor cells (6×106) in 100 μl of PBS were inoculated subcutaneously into both flanks of 8-10-week-old female nude mice (Harland). Tumor volume (in mm^3) was determined using the formula (length×width^2)/2, where length was the longest axis and width the measurement at right angles to the length (Clarke et al. 2000). When the tumor volumes reached approximately 150 mm^3, animals were treated intraperitoneally everyday with 100 μl of 50% DMSO/H2O (vehicle group), 5 mg/Kg of body weight of Z-VLL-CHO (β-secretase inhibitor), 5 mg/Kg of JLK-6 (γ-secretase inhibitor) or with 10 mg/Kg of body weight of DAPT. Data were expressed as mean tumor volume±S.E for each treatment group.
At the completion of the study, animals were humanely euthanized and tumors were harvested and fixed in paraformaldehyde 4% overnight at 4° C. After paraffin embedding in an automated tissue processing Sakura Tissue-Tek (E150) (Torrence, Calif.), samples were cut into 5 μm sections, deparafinized, and rehydrated through a graded series of alcohol. Sections were treated with 0.02 mg/ml Proteinase K (Gentra Systems, MN) for 15 minutes at 37° C. to allow for proper antigen retrieval, washed several times in PBS and incubated for 15 minutes in a 0.3% solution of hydrogen peroxide. Sections were blocked and then immunostained with a 1:40 dilution of a PECAM-1 antibody (BD-Pharmingen, CA) overnight at 4° C. in a humidification chamber. Vector ABC Kits (Vector Laboratories Inc, CA) where used following the manufacturer's instruction for the immunostaining. Quantification of tumor vascularization was performed using the stereological dissector method. Briefly, forty consecutive sections were taken from a randomly chosen starting point in each tumor. Five sections for each tumor were selected for stereology by taking one section every eight sections. A dissector counting frame was used with inclusion and exclusion lines throughout the reference area. Vessel count was performed at ×400 magnification with the use of an Olympus microscope connected to a digital video camera. Microvessels were counted in the dissector frame by an experimenter unaware of the different treatment conditions. For each tumor an average vessel count per area of dissector frame was determined. A vascular index was calculated by expressing the vessel count as a percentage of the vessel count in the vehicle treatment condition.

explants of rat aortae = assay: rat aortic ring model of angiogenesis (microvessel outgrowths); type: cell-based, Sprague Dawley rats; details: for sprouting of microvessel outgrowths, overall / dose dependence: day 4, 5 and 6
Description: Twenty four well tissue culture grade plates (Nalgene International, NY) were covered with […] of Matrigel (Becton-Dickinson, Bedford, Mass.) and allowed to gel for 30 min at 37° C., 5% CO2. Briefly, thoracic aortae were excised from 9 month-old Sprague Dawley rats. After removing the fibroadipose tissue, arteries were sectioned into 1 mm long cross sections, rinsed 5 times with EBM (Clonetics Corp.) containing 4% fetal bovine serum (FBS) and placed on the Matrigel coated wells. Artery rings were covered with an additional […] of Matrigel. After polymerization the Matrigel was covered with 1 mL of EBM (4% FBS) containing various doses of Z-VVL-CHO, OM99-2, P10-P4′statV, DAPT, or L-685,458 as indicated in the figure legends (the culture medium was changed every 3 days). Pictures were taken at day 4, 5 and 6 using a 4×objective. Microvessel outgrowth area was quantified using the Image Pro Plus software. Briefly, ring cultures were photographed using a digital video camera linked to an Olympus BX60 microscope. The outgrowth area was delineated and measured with the Image Pro Plus software by using a strategy of microvessel outgrowth detection based on difference in color intensities between the outgrowths, the Matrigel and the artery ring. The artery rings were manually selected and excluded from the area of measurement and the color intensity threshold was adjusted to selectively measure the area occupied by the microvessel outgrowths. Results were expressed as a percentage of the area occupied by microvessel outgrowths at day 4 in control condition.

SMILES	proliferation of human brain endothelial cells, dose dependence [1]	proliferation of U-87 MG brain tumor cells [2]	tumoricidal activity [2]	cellular toxicity / viability of human brain endothelial cells versus control [3]	LDH activity in the culture medium, ANOVA main effect [3]	vascularization (vascular index) of A-549 tumors versus vehicle [4]	growth (tumor volume) of A-549 xenografts versus vehicle [4]	area covered by microvessel outgrowths versus control (explants of rat aortae; 5 μM)	area covered by microvessel outgrowths versus control (explants of rat aortae; 10 μM)	area covered by microvessel outgrowths versus control (explants of rat aortae; 20 μM)	sprouting of microvessel outgrowths, overall / dose dependence (explants of rat aortae)	sprouting of microvessel outgrowths, overall / dose dependence (explants of rat aortae; listed as Z-VVL-CHO)
C[C@H](NC(=O)Cc1cc(F)cc(F)c1)C(=O)N[C@H](C(=O)OC(C)(C)C)c1ccccc1 [DAPT, N-[N-(3,5-difluorophenacetyl-L-alanyl)]-S-phenylglycine t-butyl ester]	dose dependently inhibited	dose dependently inhibited the proliferation	did not display tumoricidal activity	without inducing cellular toxicity	significant main effect	appeared to be decreased; also recorded: significantly reduce the vascularization	potently suppressed the growth; also recorded: significantly inhibit the growth	appeared to stimulate	no significant difference	inhibit	–	–
CC(C)C[C@@H](C=O)NC(=O)[C@H](CC(C)C)NC(=O)[C@@H](NC(=O)OCc1ccccc1)C(C)C [Z-VLL-CHO, N-benzyloxycarbony-val-leu-leucinal] (Cbz-Val-Leu-Leu-aldehyde)	dose dependently inhibited	dose dependently inhibited the proliferation	did not display tumoricidal activity	without affecting their viability	significant main effect	appeared to be decreased; also recorded: significantly reduce the vascularization	potently suppressed the growth; also recorded: significantly inhibit the growth	–	–	–	profoundly anti-angiogenic; also recorded: dose dependently and potently inhibited	dose-dependently inhibits
